According to PMC11219860, “A chemogenetic approach for dopamine imaging with tunable sensitivity” (Nature Communications, 2024):

Legend:
[1] = tested on: AlloLite-ctr; assay: In vivo photometry of AlloLite-ctr in NAc; parameters: species or system mouse; conditions: DETQ 10 mg/kg
Protocol: Fiber photometry combined with optogenetics was conducted using a RZ10X LUX-I/O Processor with integrated LEDs (Tucker-Davis Technologies) combined with a filter/mirror minicube set (FMC6_IE(400-410)_E1(467-497)_F1(507-554)_E2(566-586)_F2(600-680)_S) (Doric Lenses). […] Low-autofluorescence patch cords (400 µm/0.57 NA, Doric) were attached to the optic fibers (400 µm/0.66 NA, Doric) on the mouse’s head to collect fluorescence emissions. Signals were filtered through 500–540 nm GFP emission filters coupled to a photodetector on the RZ10X. […] Data were sampled at 1017.3 Hz. […] For optogenetic stimulation, a 635 nm LED was passed through the 580–680 nm minicube F2 port and reached the mouse through the same unique optic fiber; the LED was driven at 1 to 3 mW. To determine the ‘temporal window for stable imaging’ in the PFC using dLight1.3b recordings, DAT^IREScre mice expressing ChrimsonR in VTA DA axons and dLight1.3b in the PFC were injected i.p. with vehicle at 0 min, followed by DETQ (10 mg/kg) 25 min later. […] DA release was measured with fiber photometry. […] After each injection, NAc DA axons were optically (opto) activated across 3 trials (2 s, 20 Hz, 20-ms pulses) every 5 min and DA released measured with fiber photometry. […] After each injection, NAc DA axons were optically (opto) inhibited (10 s, continuous trials) every 3 min (8 trials/condition) and DA released measured with fiber photometry. […] DA release was measured with fiber photometry.
For long-term recordings during optogenetic stimulation or chemogenetic inhibition linear fit was calculated across the entire recording or across the vehicle epoch; for event-related experiments fit was performed on fluorescent data obtained in the −60 to +60 s around opto events or −5 to −1 s around behavioral events. […] DA event-related responses were quantified by computing the value at the transient’s peak value and the AUC in the 0 to 10 s or 0 to 60 s period post-event onset. […]

[2] = tested on: DRD1-MSNs; assay: Whole-cell electrophysiology of DRD1-MSNs in dorsal striatum brain slices; assay type: cell-based, mouse
Protocol: For experiments involving SKF38393 application, to identify DRD1 receptor (DRD1)-positive neurons in the dorsal striatum, DRD1:cre mice injected with AAV5-hSyn-dlox-ChrimsonR-tdTomato were used. 3–4 weeks after viral injection, mice were anesthetized with 5% isoflurane and euthanized by decapitation. […] Slices were kept at 34 °C for 10–20 minutes and then at room temperature until recordings. In the recording chamber, slices were superfused with ACSF at 30–32 °C. Patch pipettes (3–7 MΩ) were pulled from borosilicate glass pipettes (GC150T-10, Harvard Apparatus). The internal solution contained (in mM): potassium gluconate 130, MgCl2 4, MgATP 3.4, Na3GTP 0.1, creatine phosphate 10, HEPES 5, and EGTA 1.1. The membrane potential was measured using EPC 10 USB Patch Clamp Amplifiers (HEKA). The access resistance was monitored by a hyperpolarizing step of −10 mV. The identification of DRD1-positive neurons was performed by the presence of red fluorescence protein and photo-evoked current or potential (@2 Hz, 10 ms duration, 2 pulses or 500 ms continuous pulse. light source: Colibri 7, Zeiss; 630 nm wavelength, 1 mW). To assess the excitability of neurons, positive currents were injected (0–500 pA) and the number of action potentials was counted at each current step. To measure input resistance, negative currents were injected (−200 to 0 pA, every 50 pA, 500 ms), as previously described. The resting membrane potential was measured at 0 pA current input.
Action potentials were evoked by current injection (50–500 pA, 500 ms) in current-clamped neurons. Neurons were recorded from in the presence of picrotoxin (100 µM), CGP55485 (0.3 µM), DNQX (10 µM), and MK801 (10 µM) to block GABAA, GABAB, AMPA and NMDA receptors, respectively. DA (10 µM) was applied to brain slices in the presence of cocaine (5 µM) to prevent reuptake.

[3] = tested on: 14 other human targets (including D5, D2, Beta-1, Beta-2 and 5-HT6); parameters: method as in Hao et al., 2019; conditions: at 10 uM; ref Hao et al., 2019; cited from earlier work

Compound: C[C@H]1c2cccc(C(C)(C)O)c2C[C@H](CO)N1C(=O)Cc1c(Cl)cccc1Cl [DETQ, 2-(2,6-dichlorophenyl)-1-((1S,3R)-3-(hydroxymethyl)-5-(2-hydroxypropan-2-yl)-1-methyl-3,4-dihydroisoquinolin-2(1H)-yl)ethan-1-one]
- increase in baseline signal after DETQ administration [1]: completely absent
- opto-evoked DA peaks of AlloLite-ctr upon DETQ [1]: retained the same amplitude and kinetics
- number of action potentials: DA with versus without DETQ ([2]; DA 10 µM, DETQ 200 nM): no significant difference
- resting membrane potential or excitability of DRD1-MSNs ([2]; DETQ 200 nM superfusion): No noticeable changes
- activity in potentiator mode [3]: no activity was found
